ChEMBL document CHEMBL4138123, “Design, synthesis and biological evaluation of novel pyrazolochalcones as potential modulators of PI3K/Akt/mTOR pathway and inducers of apoptosis in breast cancer cells” (Eur J Med Chem, 2017)

Legend:
Format in all cases: functional
DU-145 = experiment: Cytotoxicity against human DU145 cells assessed as cell growth at 0.1 uM after 48 hrs by sulforhodamine B assay relative to control; conditions: DU-145, 48 h, read-out: Activity
M14 = experiment: Cytotoxicity against human M14 cells assessed as cell growth at 0.01 uM after 48 hrs by sulforhodamine B assay relative to control; conditions: M14, 48 h, read-out: Activity
SF-268 = experiment: Cytotoxicity against human SF268 cells assessed as cell growth at 10 uM after 48 hrs by sulforhodamine B assay relative to control; conditions: SF-268, 48 h, read-out: Activity
HL-60(TB) = experiment: Cytotoxicity against human HL-60(TB) cells assessed as cell growth at 1 uM after 48 hrs by sulforhodamine B assay relative to control; conditions: HL-60, 48 h, read-out: Activity
MDA-MB-468 = experiment: Cytotoxicity against human MDA-MB-468 cells assessed as cell growth at 1 uM after 48 hrs by sulforhodamine B assay relative to control; conditions: MDA-MB-468, 48 h, read-out: Activity
COLO 205 = experiment: Cytotoxicity against human COLO205 cells assessed as growth inhibition after 48 hrs by sulforhodamine B assay; conditions: COLO 205, 48 h
NCI-H226 [1] = experiment: Cytotoxicity against human NCI-H226 cells assessed as growth inhibition after 48 hrs by sulforhodamine B assay; conditions: NCI-H226, 48 h
NCI-H226 [2] = experiment: Cytotoxicity against human NCI-H226 cells assessed as cell growth at 1 uM after 48 hrs by sulforhodamine B assay relative to control; conditions: NCI-H226, 48 h, read-out: Activity
BT-549 [3] = experiment: Cytotoxicity against human BT549 cells assessed as cell growth at 1 uM after 48 hrs by sulforhodamine B assay relative to control; conditions: BT-549, 48 h, read-out: Activity
HT-29 = experiment: Cytotoxicity against human HT-29 cells assessed as cell growth at 0.01 uM after 48 hrs by sulforhodamine B assay relative to control; conditions: HT-29, 48 h, read-out: Activity
SNB-19 = experiment: Cytotoxicity against human SNB19 cells assessed as cell growth at 0.01 uM after 48 hrs by sulforhodamine B assay relative to control; conditions: SNB-19, 48 h, read-out: Activity
ACHN [4] = experiment: Cytotoxicity against human ACHN cells assessed as cell growth at 10 uM after 48 hrs by sulforhodamine B assay relative to control; conditions: read-out: Activity
ACHN [5] = experiment: Cytotoxicity against human ACHN cells assessed as cell growth at 100 uM after 48 hrs by sulforhodamine B assay relative to control; conditions: read-out: Activity
Malme-3M [6] = experiment: Cytotoxicity against human MALME-3M cells assessed as cell growth at 1 uM after 48 hrs by sulforhodamine B assay relative to control; conditions: read-out: Activity
ACHN [7] = experiment: Cytotoxicity against human ACHN cells assessed as growth inhibition after 48 hrs by sulforhodamine B assay
UACC-62 = experiment: Cytotoxicity against human UACC62 cells assessed as cell growth at 0.01 uM after 48 hrs by sulforhodamine B assay relative to control; conditions: UACC-62, 48 h, read-out: Activity
HCT-116 = experiment: Cytotoxicity against human HCT116 cells assessed as cell growth at 0.01 uM after 48 hrs by sulforhodamine B assay relative to control; conditions: HCT-116, 48 h, read-out: Activity
T47D [8] = experiment: Cytotoxicity against human T47D cells assessed as cell growth at 10 uM after 48 hrs by sulforhodamine B assay relative to control; conditions: read-out: Activity
TK-10 = experiment: Cytotoxicity against human TK10 cells assessed as growth inhibition after 48 hrs by sulforhodamine B assay; conditions: TK-10, 48 h
HOP-62 = experiment: Cytotoxicity against human HOP62 cells assessed as cell growth at 0.01 uM after 48 hrs by sulforhodamine B assay relative to control; conditions: HOP-62, 48 h, read-out: Activity
OVCAR-5 [9] = experiment: Cytotoxicity against human OVCAR5 cells assessed as growth inhibition after 48 hrs by sulforhodamine B assay; conditions: OVCAR-5, 48 h
U-251 = experiment: Cytotoxicity against human U251 cells assessed as growth inhibition after 48 hrs by sulforhodamine B assay; conditions: U-251, 48 h
BT-549 [10] = experiment: Cytotoxicity against human BT549 cells assessed as cell growth at 0.1 uM after 48 hrs by sulforhodamine B assay relative to control; conditions: BT-549, 48 h, read-out: Activity
786-0 = experiment: Cytotoxicity against human 786-0 cells assessed as cell growth at 10 uM after 48 hrs by sulforhodamine B assay relative to control; conditions: 786-0, 48 h, read-out: Activity
BT-549 [11] = experiment: Cytotoxicity against human BT549 cells assessed as cell growth at 10 uM after 48 hrs by sulforhodamine B assay relative to control; conditions: BT-549, 48 h, read-out: Activity
NCI-H460 = experiment: Cytotoxicity against human NCI-H460 cells assessed as cell growth at 0.01 uM after 48 hrs by sulforhodamine B assay relative to control; conditions: NCI-H460, 48 h, read-out: Activity
T47D [12] = experiment: Cytotoxicity against human T47D cells assessed as cell growth at 1 uM after 48 hrs by sulforhodamine B assay relative to control; conditions: read-out: Activity
SK-MEL-28 = experiment: Cytotoxicity against human SK-MEL-28 cells assessed as cell growth at 0.1 uM after 48 hrs by sulforhodamine B assay relative to control; conditions: SK-MEL-28, 48 h, read-out: Activity
RPMI-8226 = experiment: Cytotoxicity against human RPMI8226 cells assessed as cell growth at 0.1 uM after 48 hrs by sulforhodamine B assay relative to control; conditions: RPMI-8226, 48 h, read-out: Activity
OVCAR-5 [13] = experiment: Cytotoxicity against human OVCAR5 cells assessed as cell growth at 1 uM after 48 hrs by sulforhodamine B assay relative to control; conditions: OVCAR-5, 48 h, read-out: Activity
K562 = experiment: Cytotoxicity against human K562 cells assessed as growth inhibition after 48 hrs by sulforhodamine B assay; conditions: K562, 48 h
MCF7 = experiment: Cytotoxicity against human MCF7 cells assessed as cell growth at 0.01 uM after 48 hrs by sulforhodamine B assay relative to control; conditions: MCF7, 48 h, read-out: Activity
NCI/ADR-RES = experiment: Cytotoxicity against human NCI/ADR-RES cells assessed as cell growth at 0.01 uM after 48 hrs by sulforhodamine B assay relative to control; conditions: read-out: Activity
Malme-3M [14] = experiment: Cytotoxicity against human MALME-3M cells assessed as growth inhibition after 48 hrs by sulforhodamine B assay

Compound: COc1ccc(-c2cc(/C=C/C(=O)c3ccc(N)cc3)[nH]n2)cc1
- growth at 0.1 µM (DU-145): 100%
- growth at 0.01 µM (M14): 102%
- growth at 10 µM (SF-268): -29%
- growth at 1 µM (HL-60(TB)): 61%
- growth at 1 µM (MDA-MB-468): 29%
- GI50 (COLO 205): 1.85 µM
- LC50 (COLO 205): 6.41 µM
- TGI (COLO 205): 3.45 µM
- GI50 (NCI-H226 [1]): 2 µM
- LC50 (concentration killing 50% of cells) (NCI-H226 [1]): 92.1 µM
- TGI (NCI-H226 [1]): 5.57 µM
- growth at 1 µM (NCI-H226 [2]): 86%
- growth at 1 µM (BT-549 [3]): 77%
- growth at 0.01 µM (HT-29): 97%
- growth at 0.01 µM (SNB-19): 92%
- growth at 10 µM (ACHN [4]): 2%
- growth at 100 µM (ACHN [5]): -73%
- growth at 1 µM (Malme-3M [6]): 87%
- GI50 (ACHN [7]): 2.01 µM
- LC50 (ACHN [7]): 49.2 µM
- TGI (ACHN [7]): 10.6 µM
- growth at 0.01 µM (UACC-62): 96%
- growth at 0.01 µM (HCT-116): 97%
- growth at 10 µM (T47D [8]): -1%
- GI50 (TK-10): 2.81 µM
- LC50 (TK-10): 39.8 µM
- TGI (TK-10): 13 µM
- growth at 0.01 µM (HOP-62): 107%
- GI50 (OVCAR-5 [9]): 2.06 µM
- LC50 (OVCAR-5 [9]): 16 µM
- TGI (OVCAR-5 [9]): 4.92 µM
- GI50 (U-251): 1.24 µM
- LC50 (U-251): 5.3 µM
- TGI (U-251): 2.57 µM
- growth at 0.1 µM (BT-549 [10]): 96%
- growth at 10 µM (786-0): -29%
- growth at 10 µM (BT-549 [11]): -37%
- growth at 0.01 µM (NCI-H460): 101%
- growth at 1 µM (T47D [12]): 60%
- growth at 0.1 µM (SK-MEL-28): 91%
- growth at 0.1 µM (RPMI-8226): 100%
- growth at 1 µM (OVCAR-5 [13]): 92%
- GI50 (K562): 1.42 µM
- LC50 (concentration killing 50% of cells) (K562): 69.7 µM
- TGI (K562): 11.6 µM
- growth at 0.01 µM (MCF7): 84%
- growth at 0.01 µM (NCI/ADR-RES): 101%
- GI50 (Malme-3M [14]): 2.18 µM
- LC50 (Malme-3M [14]): 28.8 µM
- TGI (Malme-3M [14]): 6.22 µM
